Assay results reported in the kinase profiling compilation of Christmann-Franck et al. (2016).

What was measured:
Assay in all cases: KINOMEscan competition binding
Settings in all cases: compound 10.0 µM
[1] = system: ABL1 (human), P00519 [E255K]
BRAF (human) = BRAF (human) (UniProt P15056)
CDK2 (human) = CDK2 (human) (UniProt P24941)
CDKL1 (human) = CDKL1 (human) (UniProt Q00532)
CRK2 (P.falciparum) = CRK2 (P.falciparum) (UniProt P61075)
CSNK1A1 (human) = CSNK1A1 (human) (UniProt P48729)
DYRK2 (human) = DYRK2 (human) (UniProt Q92630)
[2] = system: EGFR (human), P00533 [P753S; 747-752 del]
EIF2AK1 (human) = EIF2AK1 (human) (UniProt Q9BQI3)
EPHB6 (human) = EPHB6 (human) (UniProt O15197)
ERBB3 (human) = ERBB3 (human) (UniProt P21860)
ERN1 (human) = ERN1 (human) (UniProt O75460)
GRK7 (human) = GRK7 (human) (UniProt Q8WTQ7)
HIPK3 (human) = HIPK3 (human) (UniProt Q9H422)
HIPK4 (human) = HIPK4 (human) (UniProt Q8NE63)
KIT (human) = KIT (human) (UniProt P10721)
[3] = system: KIT (human), P10721 [V559D/T670I]
LRRK2 (human) = LRRK2 (human) (UniProt Q5S007)
MAP2K7 (human) = MAP2K7 (human) (UniProt O14733)
MAP3K13 (human) = MAP3K13 (human) (UniProt O43283)
MAP3K15 (human) = MAP3K15 (human) (UniProt Q6ZN16)
MAP3K2 (human) = MAP3K2 (human) (UniProt Q9Y2U5)
MAST1 (human) = MAST1 (human) (UniProt Q9Y2H9)
MATK (human) = MATK (human) (UniProt P42679)
MTOR (human) = MTOR (human) (UniProt P42345)
NEK11 (human) = NEK11 (human) (UniProt Q8NG66)
NEK3 (human) = NEK3 (human) (UniProt P51956)
OXSR1 (human) = OXSR1 (human) (UniProt O95747)
PI4KB (human) = PI4KB (human) (UniProt Q9UBF8)
[4] = system: PIK3CA (human), P42336 [E545K]
[5] = system: PIK3CA (human), P42336 [I800L]
PIK3CG (human) = PIK3CG (human) (UniProt P48736)
ROCK1 (human) = ROCK1 (human) (UniProt Q13464)
RPS6KB1 (human) = RPS6KB1 (human) (UniProt P23443)
SBK1 (human) = SBK1 (human) (UniProt Q52WX2)
SGK3 (human) = SGK3 (human) (UniProt Q96BR1)
TBK1 (human) = TBK1 (human) (UniProt Q9UHD2)
TIE1 (human) = TIE1 (human) (UniProt P35590)
[6] = system: FLT3 (human), P36888 [K663Q]
[7] = system: EGFR (human), P00533 [746-750 del]

Sequence of PIK3CA (human), P42336 [E545K] (P42336 whole entry E545K, looked up): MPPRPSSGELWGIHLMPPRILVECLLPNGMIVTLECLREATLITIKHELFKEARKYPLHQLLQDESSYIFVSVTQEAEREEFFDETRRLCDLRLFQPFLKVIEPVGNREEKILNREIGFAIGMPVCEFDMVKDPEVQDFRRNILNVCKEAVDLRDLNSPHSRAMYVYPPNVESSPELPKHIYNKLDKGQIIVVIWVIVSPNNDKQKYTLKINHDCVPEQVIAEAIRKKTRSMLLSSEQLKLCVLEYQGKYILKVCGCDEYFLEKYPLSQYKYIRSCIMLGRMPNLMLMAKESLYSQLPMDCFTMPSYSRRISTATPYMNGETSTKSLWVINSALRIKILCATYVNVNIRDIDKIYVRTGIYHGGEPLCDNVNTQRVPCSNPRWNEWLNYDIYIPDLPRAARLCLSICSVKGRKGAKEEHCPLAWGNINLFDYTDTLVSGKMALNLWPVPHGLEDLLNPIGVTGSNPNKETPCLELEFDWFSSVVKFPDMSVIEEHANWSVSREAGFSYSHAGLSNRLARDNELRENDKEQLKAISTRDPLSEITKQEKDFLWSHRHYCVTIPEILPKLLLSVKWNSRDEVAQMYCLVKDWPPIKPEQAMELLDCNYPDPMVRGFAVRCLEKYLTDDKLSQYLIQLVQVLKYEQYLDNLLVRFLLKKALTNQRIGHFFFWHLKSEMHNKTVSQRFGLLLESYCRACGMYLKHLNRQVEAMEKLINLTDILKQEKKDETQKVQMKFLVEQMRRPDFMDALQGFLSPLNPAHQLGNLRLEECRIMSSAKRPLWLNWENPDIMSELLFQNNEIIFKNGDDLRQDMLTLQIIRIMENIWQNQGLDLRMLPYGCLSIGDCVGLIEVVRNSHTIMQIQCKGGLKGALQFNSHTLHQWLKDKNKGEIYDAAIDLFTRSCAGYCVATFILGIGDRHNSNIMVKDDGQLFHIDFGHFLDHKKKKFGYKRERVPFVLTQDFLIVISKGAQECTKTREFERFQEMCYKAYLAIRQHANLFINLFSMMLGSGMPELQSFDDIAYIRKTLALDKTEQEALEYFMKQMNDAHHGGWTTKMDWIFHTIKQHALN
Sequence of NEK11 (human) (Q8NG66 whole entry, looked up): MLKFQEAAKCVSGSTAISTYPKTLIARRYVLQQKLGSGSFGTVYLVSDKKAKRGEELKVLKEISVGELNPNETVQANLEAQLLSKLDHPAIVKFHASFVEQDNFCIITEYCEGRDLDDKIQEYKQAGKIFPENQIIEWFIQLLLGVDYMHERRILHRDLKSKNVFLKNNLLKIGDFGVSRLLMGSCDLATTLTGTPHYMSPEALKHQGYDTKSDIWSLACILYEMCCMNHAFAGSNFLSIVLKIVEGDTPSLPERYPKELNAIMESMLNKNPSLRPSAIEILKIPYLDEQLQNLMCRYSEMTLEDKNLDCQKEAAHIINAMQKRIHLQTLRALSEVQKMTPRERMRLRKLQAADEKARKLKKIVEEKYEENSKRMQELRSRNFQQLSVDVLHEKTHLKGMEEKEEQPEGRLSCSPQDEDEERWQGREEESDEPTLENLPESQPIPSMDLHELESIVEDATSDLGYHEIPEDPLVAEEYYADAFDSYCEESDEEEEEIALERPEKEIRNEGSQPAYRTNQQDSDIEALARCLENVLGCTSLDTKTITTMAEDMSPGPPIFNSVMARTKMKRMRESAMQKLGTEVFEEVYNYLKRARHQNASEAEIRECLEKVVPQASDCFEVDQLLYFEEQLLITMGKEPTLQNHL
Sequence of TIE1 (human) (P35590 whole entry, looked up): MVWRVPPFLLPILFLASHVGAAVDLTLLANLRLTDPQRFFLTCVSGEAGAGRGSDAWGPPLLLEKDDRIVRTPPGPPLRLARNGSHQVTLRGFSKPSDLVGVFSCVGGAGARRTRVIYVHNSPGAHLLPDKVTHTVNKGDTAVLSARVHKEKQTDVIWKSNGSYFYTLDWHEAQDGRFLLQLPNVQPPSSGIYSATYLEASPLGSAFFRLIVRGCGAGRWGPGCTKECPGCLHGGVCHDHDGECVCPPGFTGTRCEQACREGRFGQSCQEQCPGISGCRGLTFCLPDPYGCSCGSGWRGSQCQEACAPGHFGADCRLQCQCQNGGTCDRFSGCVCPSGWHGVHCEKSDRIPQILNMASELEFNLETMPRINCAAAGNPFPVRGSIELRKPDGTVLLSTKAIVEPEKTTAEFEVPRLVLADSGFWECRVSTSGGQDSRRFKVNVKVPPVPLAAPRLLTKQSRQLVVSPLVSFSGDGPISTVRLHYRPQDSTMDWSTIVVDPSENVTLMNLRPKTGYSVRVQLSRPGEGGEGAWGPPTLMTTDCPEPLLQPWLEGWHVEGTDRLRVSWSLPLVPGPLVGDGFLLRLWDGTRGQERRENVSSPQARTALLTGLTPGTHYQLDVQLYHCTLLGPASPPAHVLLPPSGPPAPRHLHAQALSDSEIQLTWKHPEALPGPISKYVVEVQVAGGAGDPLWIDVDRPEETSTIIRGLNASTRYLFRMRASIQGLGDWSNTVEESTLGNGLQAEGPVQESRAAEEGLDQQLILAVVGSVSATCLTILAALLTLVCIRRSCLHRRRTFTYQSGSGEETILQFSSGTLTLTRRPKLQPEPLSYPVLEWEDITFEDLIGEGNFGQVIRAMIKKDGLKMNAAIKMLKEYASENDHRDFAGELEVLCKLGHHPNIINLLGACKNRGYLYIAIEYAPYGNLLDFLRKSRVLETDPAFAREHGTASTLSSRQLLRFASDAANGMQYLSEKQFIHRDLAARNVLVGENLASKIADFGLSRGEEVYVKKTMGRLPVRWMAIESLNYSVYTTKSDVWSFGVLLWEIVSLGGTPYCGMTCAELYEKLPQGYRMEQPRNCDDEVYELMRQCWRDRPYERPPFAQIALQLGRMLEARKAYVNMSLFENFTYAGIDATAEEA
Sequence of CRK2 (P.falciparum) (P61075 whole entry, looked up): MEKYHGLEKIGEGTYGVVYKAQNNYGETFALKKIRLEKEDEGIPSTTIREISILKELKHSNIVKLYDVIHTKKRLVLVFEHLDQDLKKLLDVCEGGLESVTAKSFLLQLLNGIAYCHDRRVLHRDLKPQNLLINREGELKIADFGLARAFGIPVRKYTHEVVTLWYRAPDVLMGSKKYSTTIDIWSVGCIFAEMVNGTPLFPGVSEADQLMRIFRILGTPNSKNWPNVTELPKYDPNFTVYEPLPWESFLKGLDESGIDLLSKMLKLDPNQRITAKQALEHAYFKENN
Sequence of EPHB6 (human) (O15197 whole entry, looked up): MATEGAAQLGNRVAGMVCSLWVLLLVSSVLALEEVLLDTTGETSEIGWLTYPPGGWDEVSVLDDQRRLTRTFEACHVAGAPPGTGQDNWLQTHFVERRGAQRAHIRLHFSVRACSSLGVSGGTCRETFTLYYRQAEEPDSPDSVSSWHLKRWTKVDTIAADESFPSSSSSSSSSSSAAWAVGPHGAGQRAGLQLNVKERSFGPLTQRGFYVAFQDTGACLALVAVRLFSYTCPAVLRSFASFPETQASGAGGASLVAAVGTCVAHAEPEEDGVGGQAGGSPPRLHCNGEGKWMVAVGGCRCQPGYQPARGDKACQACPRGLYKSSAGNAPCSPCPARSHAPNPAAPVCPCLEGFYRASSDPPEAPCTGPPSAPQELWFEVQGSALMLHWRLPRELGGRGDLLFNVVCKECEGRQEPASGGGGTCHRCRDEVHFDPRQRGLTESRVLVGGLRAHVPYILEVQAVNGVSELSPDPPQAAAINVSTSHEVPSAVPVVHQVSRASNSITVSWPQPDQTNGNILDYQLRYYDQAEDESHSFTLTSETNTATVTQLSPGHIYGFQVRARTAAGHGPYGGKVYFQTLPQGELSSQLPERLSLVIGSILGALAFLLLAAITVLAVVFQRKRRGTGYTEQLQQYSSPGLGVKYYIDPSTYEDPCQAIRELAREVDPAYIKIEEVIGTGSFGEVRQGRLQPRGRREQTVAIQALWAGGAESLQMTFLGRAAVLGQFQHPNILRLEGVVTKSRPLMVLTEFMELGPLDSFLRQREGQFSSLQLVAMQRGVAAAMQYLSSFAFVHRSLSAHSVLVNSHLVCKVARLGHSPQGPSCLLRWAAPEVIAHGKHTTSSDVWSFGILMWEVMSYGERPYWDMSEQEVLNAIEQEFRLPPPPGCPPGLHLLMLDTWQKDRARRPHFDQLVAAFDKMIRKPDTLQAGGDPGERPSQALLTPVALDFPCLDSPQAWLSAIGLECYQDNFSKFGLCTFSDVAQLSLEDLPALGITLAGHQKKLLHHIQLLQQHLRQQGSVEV
Sequence of PIK3CA (human), P42336 [I800L] (P42336 whole entry I800L, looked up): as the sequence (P42336 whole entry E545K, looked up) above, with K545E, I800L counted along it
Sequence of PI4KB (human) (Q9UBF8 whole entry, looked up): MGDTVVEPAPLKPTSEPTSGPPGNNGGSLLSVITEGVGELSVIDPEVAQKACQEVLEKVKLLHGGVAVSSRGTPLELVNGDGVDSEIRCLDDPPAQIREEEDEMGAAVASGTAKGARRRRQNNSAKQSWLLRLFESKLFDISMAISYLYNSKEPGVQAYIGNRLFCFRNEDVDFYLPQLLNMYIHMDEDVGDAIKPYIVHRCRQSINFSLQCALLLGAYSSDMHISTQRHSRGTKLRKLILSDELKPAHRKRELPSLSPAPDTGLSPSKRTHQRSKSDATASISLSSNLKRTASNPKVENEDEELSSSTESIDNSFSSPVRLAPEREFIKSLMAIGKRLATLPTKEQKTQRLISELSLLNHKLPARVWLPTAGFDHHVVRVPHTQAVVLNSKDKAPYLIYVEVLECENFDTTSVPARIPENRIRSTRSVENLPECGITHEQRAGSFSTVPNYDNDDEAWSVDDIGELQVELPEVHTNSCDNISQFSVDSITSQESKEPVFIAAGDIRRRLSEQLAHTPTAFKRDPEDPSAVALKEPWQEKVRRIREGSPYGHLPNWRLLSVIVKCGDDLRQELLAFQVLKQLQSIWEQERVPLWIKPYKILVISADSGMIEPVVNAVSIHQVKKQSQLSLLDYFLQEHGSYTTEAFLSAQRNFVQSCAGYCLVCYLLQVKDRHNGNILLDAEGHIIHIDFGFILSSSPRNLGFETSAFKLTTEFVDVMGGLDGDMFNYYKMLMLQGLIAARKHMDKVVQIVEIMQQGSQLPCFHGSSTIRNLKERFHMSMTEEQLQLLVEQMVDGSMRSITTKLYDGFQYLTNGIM

O=C(NOC[C@H](O)CO)c1ccc(F)c(F)c1Nc1ccc(I)cc1F
kinase still bound, per cent of control [1]: 100% | kinase still bound, per cent of control (BRAF (human)): 98% | kinase still bound, per cent of control (CDK2 (human)): 91% | kinase still bound, per cent of control (CDKL1 (human)): 78% | kinase still bound, per cent of control (CRK2 (P.falciparum)): 100% | kinase still bound, per cent of control (CSNK1A1 (human)): 100% | kinase still bound, per cent of control (DYRK2 (human)): 95% | kinase still bound, per cent of control [2]: 59% | kinase still bound, per cent of control (EIF2AK1 (human)): 100% | kinase still bound, per cent of control (EPHB6 (human)): 87% | kinase still bound, per cent of control (ERBB3 (human)): 100% | kinase still bound, per cent of control (ERN1 (human)): 97% | kinase still bound, per cent of control (GRK7 (human)): 100% | kinase still bound, per cent of control (HIPK3 (human)): 49% | kinase still bound, per cent of control (HIPK4 (human)): 100% | kinase still bound, per cent of control (KIT (human)): 92% | kinase still bound, per cent of control [3]: 90% | kinase still bound, per cent of control (LRRK2 (human)): 86% | kinase still bound, per cent of control (MAP2K7 (human)): 100% | kinase still bound, per cent of control (MAP3K13 (human)): 86% | kinase still bound, per cent of control (MAP3K15 (human)): 100% | kinase still bound, per cent of control (MAP3K2 (human)): 100% | kinase still bound, per cent of control (MAST1 (human)): 100% | kinase still bound, per cent of control (MATK (human)): 100% | kinase still bound, per cent of control (MTOR (human)): 100% | kinase still bound, per cent of control (NEK11 (human)): 91% | kinase still bound, per cent of control (NEK3 (human)): 100% | kinase still bound, per cent of control (OXSR1 (human)): 100% | kinase still bound, per cent of control (PI4KB (human)): 100% | kinase still bound, per cent of control [4]: 53% | kinase still bound, per cent of control [5]: 33% | kinase still bound, per cent of control (PIK3CG (human)): 88% | kinase still bound, per cent of control (ROCK1 (human)): 100% | kinase still bound, per cent of control (RPS6KB1 (human)): 100% | kinase still bound, per cent of control (SBK1 (human)): 100% | kinase still bound, per cent of control (SGK3 (human)): 89% | kinase still bound, per cent of control (TBK1 (human)): 85% | kinase still bound, per cent of control (TIE1 (human)): 54%

N#Cc1c(NC(=O)c2cccc3ccccc23)sc2c1CCCC2
kinase still bound, per cent of control [1]: 100% | kinase still bound, per cent of control (BRAF (human)): 100% | kinase still bound, per cent of control (CDK2 (human)): 95% | kinase still bound, per cent of control (CDKL1 (human)): 73% | kinase still bound, per cent of control (CRK2 (P.falciparum)): 100% | kinase still bound, per cent of control (CSNK1A1 (human)): 100% | kinase still bound, per cent of control (DYRK2 (human)): 100% | kinase still bound, per cent of control (EIF2AK1 (human)): 100% | kinase still bound, per cent of control (EPHB6 (human)): 85% | kinase still bound, per cent of control (ERBB3 (human)): 100% | kinase still bound, per cent of control (ERN1 (human)): 90% | kinase still bound, per cent of control [6]: 93% | kinase still bound, per cent of control (GRK7 (human)): 88% | kinase still bound, per cent of control (HIPK3 (human)): 43% | kinase still bound, per cent of control (HIPK4 (human)): 100% | kinase still bound, per cent of control [3]: 78% | kinase still bound, per cent of control (LRRK2 (human)): 94% | kinase still bound, per cent of control (MAP2K7 (human)): 100% | kinase still bound, per cent of control (MAP3K13 (human)): 83% | kinase still bound, per cent of control (MAP3K15 (human)): 100% | kinase still bound, per cent of control (MAP3K2 (human)): 100% | kinase still bound, per cent of control (MAST1 (human)): 100% | kinase still bound, per cent of control (MATK (human)): 100% | kinase still bound, per cent of control (MTOR (human)): 100% | kinase still bound, per cent of control (NEK11 (human)): 100% | kinase still bound, per cent of control (NEK3 (human)): 100% | kinase still bound, per cent of control (OXSR1 (human)): 100% | kinase still bound, per cent of control (PI4KB (human)): 100% | kinase still bound, per cent of control [4]: 88% | kinase still bound, per cent of control [5]: 98% | kinase still bound, per cent of control (PIK3CG (human)): 99% | kinase still bound, per cent of control (ROCK1 (human)): 100% | kinase still bound, per cent of control (RPS6KB1 (human)): 90% | kinase still bound, per cent of control (SBK1 (human)): 100% | kinase still bound, per cent of control (SGK3 (human)): 92% | kinase still bound, per cent of control (TBK1 (human)): 88% | kinase still bound, per cent of control (TIE1 (human)): 95%

Cc1ccc2nc(NCCN)c3ncc(C)n3c2c1
kinase still bound, per cent of control [1]: 87% | kinase still bound, per cent of control (BRAF (human)): 95% | kinase still bound, per cent of control (CDKL1 (human)): 74% | kinase still bound, per cent of control (CRK2 (P.falciparum)): 100% | kinase still bound, per cent of control (CSNK1A1 (human)): 68% | kinase still bound, per cent of control (DYRK2 (human)): 8.8% | kinase still bound, per cent of control [7]: 100% | kinase still bound, per cent of control [2]: 100% | kinase still bound, per cent of control (EIF2AK1 (human)): 87% | kinase still bound, per cent of control (EPHB6 (human)): 44% | kinase still bound, per cent of control (ERBB3 (human)): 83% | kinase still bound, per cent of control (ERN1 (human)): 88% | kinase still bound, per cent of control [6]: 92% | kinase still bound, per cent of control (GRK7 (human)): 100% | kinase still bound, per cent of control (HIPK3 (human)): 32% | kinase still bound, per cent of control (HIPK4 (human)): 41% | kinase still bound, per cent of control (KIT (human)): 37% | kinase still bound, per cent of control [3]: 39% | kinase still bound, per cent of control (LRRK2 (human)): 97% | kinase still bound, per cent of control (MAP2K7 (human)): 100% | kinase still bound, per cent of control (MAP3K13 (human)): 74% | kinase still bound, per cent of control (MAP3K15 (human)): 100% | kinase still bound, per cent of control (MAP3K2 (human)): 100% | kinase still bound, per cent of control (MAST1 (human)): 100% | kinase still bound, per cent of control (MATK (human)): 100% | kinase still bound, per cent of control (MTOR (human)): 87% | kinase still bound, per cent of control (NEK11 (human)): 100% | kinase still bound, per cent of control (NEK3 (human)): 100% | kinase still bound, per cent of control (OXSR1 (human)): 100% | kinase still bound, per cent of control (PI4KB (human)): 100% | kinase still bound, per cent of control [4]: 100% | kinase still bound, per cent of control [5]: 100% | kinase still bound, per cent of control (PIK3CG (human)): 100% | kinase still bound, per cent of control (ROCK1 (human)): 100% | kinase still bound, per cent of control (RPS6KB1 (human)): 96% | kinase still bound, per cent of control (SBK1 (human)): 100% | kinase still bound, per cent of control (SGK3 (human)): 100% | kinase still bound, per cent of control (TBK1 (human)): 100% | kinase still bound, per cent of control (TIE1 (human)): 100%
